The nature of data set [1]: Proof of concept pharmacokinetic / bioavailability study, plasma mitragynine after single dose. It counts as in vivo, Sprague Dawley rats. Conditions: male rats. The method, then:
Once the capsule formulation was finalized, a proof of concept and safety study was carried out in Sprague Dawley rats. Male and female rats (250±25 g) were purchased from Envigo (Indianapolis, IN, USA) with indwelling jugular vein cannulas and acclimated ≥72 h in a temperature- and humidity-controlled vivarium on a 12 h light/dark cycle. Study protocols were approved by the Institutional Animal Care and Use Committee (IACUC) at the University of Florida, which is fully accredited by the Association for Assessment and Accreditation of Laboratory Animal Care International (AAALAC) and were written in accordance with the National Institutes of Health (NIH) Guide for the Care and Use of Laboratory Animals.
Rats were fasted for 10 h prior to dosing and an additional 2 h post-dose. Rats were dosed with one size 9 gelatin capsule with fill weights of 19.5±0.5 mg, (about 5.1 mg kratom or 2.3 mg mitragynine). […] Rats were connected to an automatic blood collection system (Bioanalytical Systems Inc., West Lafayette, IN, USA) and blood samples were taken at pre-dose, 0.08, 0.17, 0.25, 0.5, 0.75, 1, 2, 4, 6, 8, 12, 18, and 24 h. At the completion of the study, plasma samples were separated by centrifugation at 850×g for 10 min at 4° C. and stored at −20° C. until analysis.
To process plasma (rat or dog) samples for analysis, 20 μL aliquots of each sample were taken. To prepare calibration standards (CS), 2.0 μL of mix stock were added to 18 μL of blank plasma. This generated eight standards of 2.5, 5, 25, 50, 100, 150, 250, and 500 ng/mL, in the respective plasma. The same process was used to generate the lower limit of quantification (LLOQ) (2.5 ng/mL), low quality control (LQC) (6.25 ng/mL), medium quality control MQC (200 ng/mL) and high quality control (HQC) (400 ng/mL). After spiking, the CS and QC samples were vortex mixed for 5 min at 650 rpm. Analytes were precipitated using 100 μL methanol acidified with 0.05% formic acid containing 50 ng/mL IS in a 1:4 ratio. The samples were then vortex mixed for 5 min at 650 rpm before being transferred to a 96-well Millipore Solvinert 0.45 μm filter plate (Burlington, MA, USA) and centrifuged at 850×g for 2 min at 4° C.
A previously reported UPLC-MS/MS method for the quantification of eleven kratom alkaloids was used to analyze all samples^13. Briefly, the mobile phase composed of aqueous ammonium acetate buffer (2.5 mM, pH 3.5, (A)) and acetonitrile (B). The gradient started at 90% A and 10% B, and A was decreased to 75% by 3.5 min and then to 60% by 10 min. […] An Acquity UPLC® BEH C18 column (1.7 μm, 2.1×100 mm) with a VanGuard precolumn of the same chemistry was used for separation (Waters, Milford, MA, USA). The UPLC-MS/MS was a Waters™ Acquity Class-I chromatograph coupled with a Xevo TQ-S Micro triple quadrupole mass spectrometer (Waters, Milford, MA, USA).
The TargetLynx™ application of MassLynx™ 4.2 was used for data processing and quantification of the UPLC-MS/MS data (Waters, Milford, MA, USA). Phoenix Version 6.4 (Certara, Princeton, NJ, USA) was used for the non-compartmental analysis using a linear log interpolation. Graphpad Prism Version 8 (GraphPad Software, San Diego, CA, USA) was used to plot the concentration-time profiles for each dataset. R Studio version 1.4.1717 was used for statistical analysis (R Foundation for Statistical Computing, Vienna, Austria).

For data set [2] the following is noted: single oral dose of 5 mg/kg mitragynine equivalent; female beagle dogs; cited from earlier work.
For data set [3] the following is noted: rats; delivered as a purified aqueous solution; cited from earlier work.
The mark [4] stands for this setting: mitragynine in plasma, oral 20 mg/kg.

This is an account of results in patent US20260151446A1, “IMPROVED ORAL BIOAVAILABILITY FORMULATION FOR MITRAGYNA SPECIOSA (KRATOM)” (priority 2022, published 2026).

Regarding `CC[C@@H]1CN2CCc3c([nH]c4cccc(OC)c34)[C@@H]2C[C@@H]1/C(=C\OC)C(=O)OC` [Mitragynine, mitragynine], the time of peak concentration (Tmax) in data set [1] (Sprague Dawley, rat, in vivo, mitragynine in plasma, oral 20 mg/kg) stood at 24 ± 6 min. In addition, the bioavailability in data set [1] (Sprague Dawley, rat, in vivo, mitragynine, oral 20 mg/kg) worked out at 37%. Besides, the AUC/Dose in data set [1] (mitragynine in plasma, IV […]) is 335 ± 16.5 µg·h/L/mg/kg; in data set [1] (setting [4]), 122.4 ± 13.0 µg·h/L/mg/kg. Besides, the Cmax/Dose in data set [1] (setting [4]) worked out at 22.7 ± 4.9 µg/L/mg/kg. In addition, in data set [2], the tolerability result was “well tolerated”. Further, in data set [3], the bioavailability of mitragynine was 17%.

As usually defined, the Tmax is the time at which the peak concentration occurs. In general, bioavailability refers to the share of a dose that reaches the circulation, judged against a reference dose that is usually intravenous. The low end stands for little systemic uptake, the high end for much systemic uptake.
